Test results from patent US6737383B1, “Herbicidal oxadiazolidines” (priority 1999, dated 2004).

Experiments:
[1] = system: blackgrass; test: Test B pre/postemergence blackgrass; format: in vivo, Alopecurus myosuroides
Outline: (§1)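 Test chemicals in a non-phytotoxic solvent mixture with surfactant were sprayed preemergence onto planted seeds and postemergence onto plants 2 to 18 cm tall (1- to 4-leaf stage). After twelve to sixteen days in a greenhouse, injury was visually rated against untreated controls from 0 (no effect) to 10 (complete control).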

[2] = system: surinam grass; test: Test B pre/postemergence surinam grass; format: in vivo, Brachiaria decumbens
Outline: as §1

[3] = system: cocklebur; test: Test B pre/postemergence cocklebur; format: in vivo, Xanthium strumarium
Outline: as §1

[4] = system: corn; test: Test B pre/postemergence corn; format: in vivo, Zea mays
Outline: as §1

[5] = system: crabgrass; test: Test B pre/postemergence crabgrass; format: in vivo, Digitaria sanguinalis
Outline: as §1

[6] = system: giant foxtail; test: Test B pre/postemergence giant foxtail; format: in vivo, Setaria faberii
Outline: as §1

[7] = system: morningglory; test: Test B pre/postemergence morningglory; format: in vivo, Ipomoea hederacea
Outline: as §1

[8] = system: rape; test: Test B pre/postemergence rape; format: in vivo, Brassica napus
Outline: as §1

[9] = system: soybean; test: Test B pre/postemergence soybean; format: in vivo, Glycine max
Outline: as §1

[10] = system: sugar beet; test: Test B pre/postemergence sugar beet; format: in vivo, Beta vulgaris
Outline: as §1

[11] = system: velvetleaf; test: Test B pre/postemergence velvetleaf; format: in vivo, Abutilon theophrasti
Outline: as §1

[12] = system: wheat; test: Test B pre/postemergence wheat; format: in vivo, Triticum aestivum
Outline: as §1

[13] = system: wild oat; test: Test B pre/postemergence wild oat; format: in vivo, Avena fatua
Outline: as §1

[14] = system: purple nutsedge; test: Test B pre/postemergence purple nutsedge; format: in vivo, Cyperus rotundus
Outline: as §1

[15] = system: smallflower flatsedge; test: Test B flood test smallflower flatsedge; format: in vivo, Cyperus difformis
Outline: (§2)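 Flood test on plants grown to the 2-leaf stage; treated plants kept in greenhouse twelve to sixteen days, then visually rated against controls on a 0 (no effect) to 10 (complete control) scale.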

[16] = system: duck salad; test: Test B flood test duck salad; format: in vivo, Heteranthera limosa
Outline: as §2

[17] = Postemergence, Rate 125 g/ha, scale 0 to 10, 0 is no effect, 10 is complete control
[18] = Postemergence, Rate 250 g/ha, scale 0 to 10
[19] = Postemergence, Rate 500 g/ha, scale 0 to 10, 0 is no effect, 10 is complete control
[20] = Preemergence, Rate 62 g/ha, scale of 0 to 10 where 0 is no effect and 10 is complete control
[21] = Preemergence, Rate 125 g/ha, scale 0 to 10, 0 is no effect, 10 is complete control
[22] = Preemergence, Rate 250 g/ha, scale 0 to 10, 0 is no effect, 10 is complete control
[23] = Preemergence, Rate 500 g/ha, scale 0 to 10, 0 is no effect, 10 is complete control
[24] = Rate 62 g/ha, Postemergence, scale 0 to 10, 0 no effect, 10 complete control
[25] = Rate 62 g/ha, flood test species, Pre-emergence, visual evaluation after twelve to sixteen days
[26] = Rate 125 g/ha, under heading Pre-emergence, flood test species, visual evaluation after twelve to sixteen days
[27] = Rate 250 g/ha, Pre-emergence (flood test species), scale 0 to 10, 0 is no effect, 10 is complete control
[28] = Rate 500 g/ha, Pre-emergence section of Table B, 0 to 10 scale (0 no effect, 10 complete control)

In the case of CC(C)C(=O)Cn1c(=O)on(C(=O)N(c2ccc(F)cc2F)C(C)C)c1=O [Compound 486], the “Blackgrass plant response rating” value [1, 17] is reported as 6, the “Blackgrass plant response rating” value [1, 18] is reported as 8 and the “Plant response rating, Blackgrass” value [1, 19] is reported as 8. For the same compound, the “Plant response rating, Blackgrass” value [1, 20] was 7, the “Blackgrass plant response rating” value [1, 21] was 9 and the “Blackgrass plant response rating” value [1, 22] was 10. For the same compound, the “Blackgrass plant response rating” value [1, 23] was 10, the “Blackgrass plant response rating” value [1, 24] was 0 and the “B. signalgrass plant response rating” value [2, 17] was 0. For the same compound, the “B. signalgrass plant response rating” value ([2]; Postemergence, Rate 250 g/ha, scale 0 to 10, 0 no effect, 10 complete control) was 1, the “Plant response rating, B. signalgrass” value [2, 19] was 5 and the “Plant response rating, B. signalgrass” value [2, 20] was 5. The “B. signalgrass plant response rating” value [2, 21] was 5, the “B. signalgrass plant response rating” value [2, 22] was 6 and the “B. signalgrass plant response rating” value [2, 23] was 8. For the same compound, the “B. signalgrass plant response rating” value [2, 24] was 0, the “Cocklebur plant response rating” value [3, 17] was 0 and the “Cocklebur plant response rating” value [3, 18] was 0. For the same compound, the “Plant response rating, Cocklebur” value [3, 19] was 0, the “Plant response rating, Cocklebur” value [3, 20] was 0 and the “Cocklebur plant response rating” value [3, 21] was 0. For the same compound, the “Cocklebur plant response rating” value [3, 23] was 0, the “Cocklebur plant response rating” value [3, 24] was 0 and the “Corn plant response rating” value [4, 17] was 0. For the same compound, the “Corn plant response rating” value [4, 18] was 0, the “Plant response rating, Corn” value [4, 19] was 3 and the “Plant response rating, Corn” value [4, 20] was 0. For the same compound, the “Corn plant response rating” value [4, 21] was 0, the “Corn plant response rating” value [4, 22] was 5 and the “Corn plant response rating” value [4, 23] was 8. For the same compound, the “Corn plant response rating” value [4, 24] was 0, the “Crabgrass plant response rating” value [5, 17] was 3 and the “Crabgrass plant response rating” value [5, 18] was 5. For the same compound, the “Plant response rating, Crabgrass” value [5, 19] was 9, the “Plant response rating, Crabgrass” value [5, 20] was 8 and the “Crabgrass plant response rating” value [5, 21] was 9. The “Crabgrass plant response rating” value [5, 22] was 10, the “Crabgrass plant response rating” value [5, 23] was 10 and the “Crabgrass plant response rating” value [5, 24] was 0. For the same compound, the “Giant foxtail plant response rating” value [6, 17] was 7, the “Plant response rating, Giant foxtail” value [6, 19] was 9 and the “Plant response rating, Giant foxtail” value [6, 20] was 9. For the same compound, the “Giant foxtail plant response rating” value [6, 21] was 10, the “Giant foxtail plant response rating” value [6, 22] was 10 and the “Giant foxtail plant response rating” value [6, 23] was 10. For the same compound, the “Giant foxtail plant response rating” value [6, 24] was 2, the “Morningglory plant response rating” value [7, 17] was 1 and the “Plant response rating, Morningglory” value [7, 19] was 2. The “Plant response rating, Morningglory” value [7, 20] was 0, the “Morningglory plant response rating” value [7, 21] was 0 and the “Morningglory plant response rating” value [7, 22] was 0. For the same compound, the “Morningglory plant response rating” value [7, 23] was 0, the “Morningglory plant response rating” value [7, 24] was 1 and the “Rape plant response rating” value [8, 17] was 0. For the same compound, the “Plant response rating, Rape” value [8, 19] was 1, the “Plant response rating, Rape” value [8, 20] was 2 and the “Rape plant response rating” value [8, 21] was 2. The “Rape plant response rating” value [8, 22] was 6, the “Rape plant response rating” value [8, 23] was 6 and the “Rape plant response rating” value [8, 24] was 0. The “Soybean plant response rating” value [9, 17] was 4, the “Plant response rating, Soybean” value [9, 19] was 4 and the “Plant response rating, Soybean” value [9, 20] was 0. For the same compound, the “Soybean plant response rating” value [9, 21] was 0, the “Soybean plant response rating” value [9, 22] was 0 and the “Soybean plant response rating” value [9, 23] was 2. For the same compound, the “Soybean plant response rating” value [9, 24] was 4, the “Sugarbeets plant response rating” value [10, 17] was 0 and the “Plant response rating, Sugarbeets” value [10, 19] was 2. For the same compound, the “Plant response rating, Sugarbeets” value [10, 20] was 0, the “Sugarbeets plant response rating” value [10, 21] was 0 and the “Sugarbeets plant response rating” value [10, 22] was 4. The “Sugarbeets plant response rating” value [10, 23] was 6, the “Sugarbeets plant response rating” value [10, 24] was 0 and the “Velvetleaf plant response rating” value [11, 17] was 0. For the same compound, the “Plant response rating, Velvetleaf” value [11, 19] was 6, the “Plant response rating, Velvetleaf” value [11, 20] was 0 and the “Velvetleaf plant response rating” value [11, 21] was 0. For the same compound, the “Velvetleaf plant response rating” value [11, 22] was 0, the “Velvetleaf plant response rating” value [11, 23] was 0 and the “Velvetleaf plant response rating” value [11, 24] was 0. The “Wheat plant response rating” value [12, 17] was 0, the “Plant response rating, Wheat” value [12, 19] was 5 and the “Plant response rating, Wheat” value [12, 20] was 0. For the same compound, the “Wheat plant response rating” value [12, 21] was 0, the “Wheat plant response rating” value [12, 22] was 0 and the “Wheat plant response rating” value [12, 23] was 0. The “Wheat plant response rating” value [12, 24] was 0, the “Wild oats plant response rating” value [13, 17] was 0 and the “Plant response rating, Wild oats” value [13, 19] was 3. The “Plant response rating, Wild oats” value [13, 20] was 0, the “Wild oats plant response rating” value [13, 21] was 3 and the “Wild oats plant response rating” value [13, 22] was 5. For the same compound, the “Wild oats plant response rating” value [13, 23] was 8, the “Wild oats plant response rating” value [13, 24] was 0 and the “Nutsedge plant response rating” value [14, 17] was 0. For the same compound, the “Plant response rating, Nutsedge” value [14, 19] was 0, the “Plant response rating, Nutsedge” value [14, 20] was 0 and the “Nutsedge plant response rating” value [14, 21] was 0. For the same compound, the “Nutsedge plant response rating” value [14, 22] was 0, the “Nutsedge plant response rating” value [14, 23] was 0 and the “Nutsedge plant response rating” value [14, 24] was 0. For the same compound, the “Plant response rating, S. Flatsedge (0 to 10 scale, 0 is no effect, 10 is complete control)” value [15, 25] was 0, the “S. Flatsedge plant response rating (0 to 10 scale, 0 is no effect, 10 is complete control)” value [15, 26] was 0 and the “S. Flatsedge plant response rating” value [15, 27] was 0. For the same compound, the “S. Flatsedge plant response rating” value [15, 28] was 0, the “Plant response rating, Ducksalad (0 to 10 scale, 0 is no effect, 10 is complete control)” value [16, 25] was 0 and the “Ducksalad plant response rating (0 to 10 scale, 0 is no effect, 10 is complete control)” value [16, 26] was 0. The “Ducksalad plant response rating” value [16, 27] was 0 and the “Ducksalad plant response rating” value [16, 28] was 0.
